This assay relates to CD2F1 mice, intracerebral L1210 leukemia, survival T/C. The assay is described as follows: NCI In Vivo Anticancer Drug Screen. Data for tumor model L1210 Leukemia (intracerebral) in CD2F1 (CDF1) mice. The following applies: higher = longer survival. How it is done:
The antitumor activity of compounds was measured in mice bearing transplantable tumors. Survival or tumor size were measured and the results are expressed as the measurement made in the treated group (T) divided by the measurement made in the vehicle treated control group (C). The tumor model used in this assay is L1210 Leukemia (intracerebral) in CD2F1 (CDF1) mice

Where [1] appears, read: endpoint: median survival time, dose: 16.0 mg/kg/injection, schedule: Q01DX005 (ip), vehicle: saline with Tween-80.
The mark [2] stands for this setting: endpoint: median survival time, dose: 32.0 mg/kg/injection, schedule: Q01DX005 (ip), vehicle: saline with Tween-80.
The mark [3] stands for this setting: endpoint: median survival time, dose: 128.0 mg/kg/injection, schedule: Q01DX005 (ip), vehicle: saline with Tween-80.
The mark [4] stands for this setting: endpoint: median survival time, dose: 256.0 mg/kg/injection, schedule: Q01DX005 (ip), vehicle: saline with Tween-80.

“And” between values parts separate entries of the source, which are not always exact repeats. Identical values can stand only once. Toxic doses and inconclusive results are not listed.

For the compound `C1CN(P2(N3CC3)=NP(N3CC3)(N3CC3)=NP(N3CC3)(N3CC3)=N2)CCO1` (centres undefined), the T/C (endpoint: median survival time, dose: 20.0 mg/kg/injection, schedule: Q01DX001 (ip), vehicle: saline) was 92 % of control; the T/C (endpoint: median survival time, dose: 40.0 mg/kg/injection, schedule: Q01DX001 (ip), vehicle: saline) is 95 % of control; the T/C (endpoint: median survival time, dose: 80.0 mg/kg/injection, schedule: Q01DX001 (ip), vehicle: saline) was 101 % of control.
For the compound `O=C1C(=O)c2ccccc2C(O)=C1CC=C(Cl)Cl`, the T/C was 89 % of control and 96 % of control (endpoint: median survival time, dose: 10.0 mg/kg/injection, schedule: Q01DX005 (ip), vehicle: Klucel (hydroxypropylcellulose) (HPC)); 95 % of control and 96 % of control (endpoint: median survival time, dose: 20.0 mg/kg/injection, schedule: Q01DX005 (ip), vehicle: Klucel (hydroxypropylcellulose) (HPC)); 101 % of control and 109 % of control (endpoint: median survival time, dose: 40.0 mg/kg/injection, schedule: Q01DX005 (ip), vehicle: Klucel (hydroxypropylcellulose) (HPC)); 109 % of control and 117 % of control (endpoint: median survival time, dose: 80.0 mg/kg/injection, schedule: Q01DX005 (ip), vehicle: Klucel (hydroxypropylcellulose) (HPC)).
As for `COc1cc2c(c3c1c(=O)c1ccccc1n3C)C=CC(C)(C)O2`, the T/C (endpoint: median survival time, dose: 128.0 mg/kg/injection, schedule: Q01DX005 (ip), vehicle: Klucel (hydroxypropylcellulose) (HPC)) is 108 % of control.
In the case of `CN(C)N=Nc1ccc(C(N)=O)cc1`, the T/C reads like this: (endpoint: median survival time, dose: 8.0 mg/kg/injection, schedule: Q01DX005 (ip), vehicle: saline with Tween-80) 104 % of control; under setting [1], 113 % of control; under setting [2], 121 % of control; under setting [3], 106 % of control.
Take `CC[n+]1c(-c2ccccc2)c2cc(N)ccc2c2ccc(N)cc21`: the T/C was 100 % of control (endpoint: median survival time, dose: 12.0 mg/kg/injection, schedule: Q01DX005 (ip), vehicle: saline) and 104 % of control (endpoint: median survival time, dose: 24.0 mg/kg/injection, schedule: Q01DX005 (ip), vehicle: saline).
Take `COc1ccc(C(=O)/C(Br)=C/C(=O)O)cc1`: the T/C is, setting by setting: (endpoint: median survival time, dose: 10.0 mg/kg/injection, schedule: Q01DX005 (ip), vehicle: saline) 98 % of control; (endpoint: median survival time, dose: 20.0 mg/kg/injection, schedule: Q01DX005 (ip), vehicle: saline) 100 % of control; (endpoint: median survival time, dose: 40.0 mg/kg/injection, schedule: Q01DX005 (ip), vehicle: saline) 105 % of control.
Consider `COc1cccc2c1C(=O)c1c(O)c3c(c(O)c1C2=O)C[C@@](O)(/C(C)=N/NC(=O)c1ccccc1)C[C@@H]3OC1CC(N)C(O)C(C)O1` (some centres undefined), for which the T/C is, setting by setting: (endpoint: median survival time, dose: 1.0 mg/kg/injection, schedule: Q01DX009 (ip), vehicle: saline with Tween-80) 114 % of control; (endpoint: median survival time, dose: 1.0 mg/kg/injection, schedule: Q01DX009 (ip), vehicle: saline) 98 % of control and 104 % of control; (endpoint: median survival time, dose: 2.0 mg/kg/injection, schedule: Q01DX009 (ip), vehicle: saline with Tween-80) 123 % of control; (endpoint: median survival time, dose: 2.0 mg/kg/injection, schedule: Q01DX009 (ip), vehicle: saline) 103 % of control and 104 % of control; (endpoint: median survival time, dose: 4.0 mg/kg/injection, schedule: Q01DX009 (ip), vehicle: saline with Tween-80) 123 % of control; (endpoint: median survival time, dose: 4.0 mg/kg/injection, schedule: Q01DX009 (ip), vehicle: saline) 106 % of control and 110 % of control. For the same compound, the T/C by setting is: (endpoint: median survival time, dose: 8.0 mg/kg/injection, schedule: Q01DX009 (ip), vehicle: saline with Tween-80) 101 % of control; (endpoint: median survival time, dose: 8.0 mg/kg/injection, schedule: Q01DX009 (ip), vehicle: saline) 92 % of control and 116 % of control; (endpoint: median survival time, dose: 16.0 mg/kg/injection, schedule: Q01DX009 (ip), vehicle: saline with Tween-80) 89 % of control.
Regarding `CCCCN(C)N=Nc1ccc([N+](=O)[O-])cc1C(N)=O`, the T/C was 112 % of control (endpoint: mean survival time, dose: 100.0 mg/kg/injection, schedule: Q01DX009 (ip), vehicle: saline with Tween-80); 122 % of control (endpoint: mean survival time, dose: 200.0 mg/kg/injection, schedule: Q01DX009 (ip), vehicle: saline with Tween-80); 100 % of control (endpoint: mean survival time, dose: 400.0 mg/kg/injection, schedule: Q01DX009 (ip), vehicle: saline with Tween-80); 89 % of control (endpoint: mean survival time, dose: 600.0 mg/kg/injection, schedule: Q01DX009 (ip), vehicle: saline with Tween-80); 102 % of control under setting [2]; 108 % of control (endpoint: median survival time, dose: 64.0 mg/kg/injection, schedule: Q01DX005 (ip), vehicle: saline with Tween-80). In addition, the T/C was 110 % of control under setting [3] and 103 % of control under setting [4].
In the case of `COC(=O)c1ccccc1N=NN(C)C`, the T/C runs as follows: (endpoint: mean survival time, dose: 2.5 mg/kg/injection, schedule: Q01DX007 (ip), vehicle: other) 91 % of control; (endpoint: mean survival time, dose: 5.0 mg/kg/injection, schedule: Q01DX007 (ip), vehicle: other) 100 % of control; (endpoint: mean survival time, dose: 10.0 mg/kg/injection, schedule: Q01DX007 (ip), vehicle: other) 106 % of control.
In the case of `O=NN(CCCl)C(=O)NC1CCCCC1`, the T/C by setting is: (endpoint: median survival time, dose: 4.0 mg/kg/injection, schedule: Q01DX001 (ip), vehicle: other) 112 % of control; (endpoint: median survival time, dose: 8.0 mg/kg/injection, schedule: Q01DX001 (ip), vehicle: saline + alcohol) 106 % of control; (endpoint: median survival time, dose: 16.0 mg/kg/injection, schedule: Q01DX001 (ip), vehicle: other) 177 % of control; (endpoint: median survival time, dose: 16.0 mg/kg/injection, schedule: Q01DX001 (ip), vehicle: saline + alcohol) 118 % of control; (endpoint: median survival time, dose: 32.0 mg/kg/injection, schedule: Q01DX001 (ip), vehicle: other) 415 % of control; (endpoint: median survival time, dose: 64.0 mg/kg/injection, schedule: Q01DX001 (ip), vehicle: saline + alcohol) 389 % of control. Also, the T/C runs as follows: (endpoint: median survival time, dose: 128.0 mg/kg/injection, schedule: Q01DX001 (ip), vehicle: saline + alcohol) 168 % of control; (endpoint: median survival time, dose: 256.0 mg/kg/injection, schedule: Q01DX001 (ip), vehicle: saline + alcohol) 90 % of control.
For `CN(CO)c1nc(N(C)CO)nc(N(C)CO)n1`, the T/C was 101 % of control (endpoint: median survival time, dose: 3.12 mg/kg/injection, schedule: Q01DX009 (ip), vehicle: saline with Tween-80); 96 % of control (endpoint: median survival time, dose: 6.25 mg/kg/injection, schedule: Q01DX009 (ip), vehicle: saline with Tween-80); 100 % of control (endpoint: median survival time, dose: 12.5 mg/kg/injection, schedule: Q01DX009 (ip), vehicle: saline with Tween-80); 95 % of control (endpoint: median survival time, dose: 25.0 mg/kg/injection, schedule: Q01DX009 (ip), vehicle: saline with Tween-80); 104 % of control and 109 % of control (endpoint: median survival time, dose: 50.0 mg/kg/injection, schedule: Q01DX009 (ip), vehicle: Klucel (hydroxypropylcellulose) (HPC)); 104 % of control (endpoint: median survival time, dose: 50.0 mg/kg/injection, schedule: Q01DX009 (ip), vehicle: saline with Tween-80). Further, where the note is “endpoint: median survival time, dose: 100.0 mg/kg/injection, schedule: Q01DX009 (ip), vehicle: Klucel (hydroxypropylcellulose) (HPC)”, the T/C is 119 % of control and 116 % of control.
In the case of `N#[N+]c1nc[nH]c1C(N)=O`, the T/C is 112 % of control (endpoint: median survival time, dose: 2.0 mg/kg/injection, schedule: Q01DX005 (ip), vehicle: saline); 105 % of control (endpoint: median survival time, dose: 4.0 mg/kg/injection, schedule: Q01DX005 (ip), vehicle: saline); 107 % of control (endpoint: median survival time, dose: 8.0 mg/kg/injection, schedule: Q01DX005 (ip), vehicle: saline); 105 % of control (endpoint: median survival time, dose: 16.0 mg/kg/injection, schedule: Q01DX005 (ip), vehicle: saline); 105 % of control (endpoint: median survival time, dose: 32.0 mg/kg/injection, schedule: Q01DX005 (ip), vehicle: saline); 101 % of control (endpoint: median survival time, dose: 64.0 mg/kg/injection, schedule: Q01DX005 (ip), vehicle: saline).
Take `CCCCCN(C)/N=N/c1nc[nH]c1C(N)=O`: the T/C by setting is: under setting [1], 112 % of control; under setting [2], 122 % of control; under setting [4], 92 % of control.
Take `CN(C)N=Nc1ccccc1`: the T/C by setting is: (endpoint: mean survival time, dose: 6.25 mg/kg/injection, schedule: Q01DX009 (ip), vehicle: Klucel (hydroxypropylcellulose) (HPC)) 101 % of control and 104 % of control and 112 % of control; (endpoint: mean survival time, dose: 12.5 mg/kg/injection, schedule: Q01DX009 (ip), vehicle: Klucel (hydroxypropylcellulose) (HPC)) 109 % of control and 112 % of control and 113 % of control; (endpoint: mean survival time, dose: 25.0 mg/kg/injection, schedule: Q01DX009 (ip), vehicle: Klucel (hydroxypropylcellulose) (HPC)) 118 % of control; (endpoint: mean survival time, dose: 50.0 mg/kg/injection, schedule: Q01DX009 (ip), vehicle: Klucel (hydroxypropylcellulose) (HPC)) 120 % of control and 107 % of control and 115 % of control.
Turning to `CSCS(=O)C[C@H](CO)NC(=O)/C=C/c1c(C)[nH]c(=O)[nH]c1=O` (some centres undefined), the T/C is 97 % of control and 102 % of control (endpoint: median survival time, dose: 0.06 mg/kg/injection, schedule: Q01DX005 (ip), vehicle: Klucel (hydroxypropylcellulose) (HPC)); 100 % of control and 101 % of control (endpoint: median survival time, dose: 0.12 mg/kg/injection, schedule: Q01DX005 (ip), vehicle: Klucel (hydroxypropylcellulose) (HPC)); 100 % of control and 105 % of control (endpoint: median survival time, dose: 0.25 mg/kg/injection, schedule: Q01DX005 (ip), vehicle: Klucel (hydroxypropylcellulose) (HPC)); 100 % of control and 102 % of control (endpoint: median survival time, dose: 0.5 mg/kg/injection, schedule: Q01DX005 (ip), vehicle: Klucel (hydroxypropylcellulose) (HPC)).

Values taken from PubChem BioAssay AID260 (DTP/NCI, 2004).
